According to patent US8609653B2, “Azaindole compounds and methods for treating HIV” (priority 2011, dated 2013):
Structures can show the parent of a compound that is named as a salt.

test system: HIV; experiment: MT4 assay: antiviral HIV activity in MT-4 cells; type: cell-based; conditions: Human immunodeficiency virus 1, MT4, 96 h, read-out: HIV MT4 Assay IC50 (μM), HTLV-1 transformed cell line MT-4; read-out 96 hours later with cell titer glo; 10 point dose response
Protocol: Antiviral HIV activity and cytotoxicity values for compounds of the invention from Table 1 were measured in parallel in the HTLV-1 transformed cell line MT-4 based on the method previously described (Hazen et al., 2007, In vitro antiviral activity of the novel, tyrosyl-based human immunodeficiency virus (HIV) type 1 protease inhibitor brecanavir (GW640385) in combination with other antiretrovirals and against a panel of protease inhibitor-resistant HIV (Hazen et al., “In vitro antiviral activity of the novel, tyrosyl-based human immunodeficiency virus (HIV) type 1 protease inhibitor brecanavir (GW640385) in combination with other antiretrovirals and against a panel of protease inhibitor-resistant HIV”, Antimicrob. Agents Chemother. 2007, 51: 3147-3154; and Pauwels et al., “Sensitive and rapid assay on MT-4 cells for the detection of antiviral compounds against the AIDS virus”, J. of Virological Methods 1987, 16: 171-185).
Luciferase activity was measured 96 hours later by adding a cell titer glo (Promega, Madison, Wis.). Percent inhibition of cell protection data was plotted relative to no compound control. Under the same condition, cytotoxicity of the compounds was determined using cell titer Glo™ (Promega, Madison, Wis.). IC50s were determined from a 10 point dose response curve using 3-4-fold serial dilution for each compound, which spans a concentration range>1000 fold.
These values are plotted against the molar compound concentrations using the standard four parameter logistic equation: y=((Vmax*x^n)/(K^n+x^n))+Y2
Y2=minimum y n=slope factor
Vmax=maximum y x=compound concentration [M]

Row | SMILES | IC50 [µM]
1 | Cc1nc2c(ccn2Cc2ccc(F)c(F)c2)c(-c2ccc3c(c2C)CCCO3)c1[C@H](OC(C)(C)C)C(=O)O (atropisomer, axis not shown; (M)) [Example 87, (2S)(M)-2-(tert-Butoxy)-2-(1-(3,4-difluorobenzyl)-6-methyl-4-(5-methylchroman-6-yl)-1H-pyrrolo[2,3-b]pyridin-5-yl)acetic acid] | 0.005
2 | Cc1nc2c(ccn2Cc2ccc(F)c(F)c2)c(-c2cc(Cl)c3c(c2C)CCCO3)c1[C@H](OC(C)(C)C)C(=O)O (atropisomer, axis not shown; (M)) [Example 95, (2S)(M)-2-(tert-butoxy)-2-(4-(8-chloro-5-methylchroman-6-yl)-1-(3,4-difluorobenzyl)-6-methyl-1H-pyrrolo[2,3-b]pyridin-5-yl)acetic acid] | 0.04
3 | Cc1nc2c(ccn2Cc2ccc(F)c(F)c2)c(-c2cc(F)c3c(c2C)CCCO3)c1[C@H](OC(C)(C)C)C(=O)O (atropisomer, axis not shown; (M)) [Example 96, (2S)(M)-2-(tert-butoxy)-2-(1-(3,4-difluorobenzyl)-4-(8-fluoro-5-methylchroman-6-yl)-6-methyl-1H-pyrrolo[2,3-b]pyridin-5-yl)acetic acid] | 0.006
4 | Cc1nc2c(ccn2Cc2ccc(F)c(F)c2)c(-c2ccc3c(c2C)NCCO3)c1[C@H](OC(C)(C)C)C(=O)O (atropisomer, axis not shown; (M)) [Example 97, (2S)(M)-2-(tert-butoxy)-2-(1-(3,4-difluorobenzyl)-6-methyl-4-(5-methyl-3,4-dihydro-2H-benzo[b][1,4]oxazin-6-yl)-1H-pyrrolo[2,3-b]pyridin-5-yl)acetic acid, trifluoroacetic acid salt] | 0.012
5 | Cc1nc2c(ccn2Cc2cccc(F)c2F)c(-c2cc(Cl)c3c(c2C)CCCO3)c1[C@H](OC(C)(C)C)C(=O)O (atropisomer, axis not shown; (M)) [Example 98, (2S(M))-2-(tert-butoxy)-2-(4-(8-chloro-5-methylchroman-6-yl)-1-(2,3-difluorobenzyl)-6-methyl-1H-pyrrolo[2,3-b]pyridin-5-yl)acetic acid] | 0.181
6 | Cc1nc2c(ccn2Cc2cccc(F)c2F)c(-c2ccc3c(c2C)CCCO3)c1[C@H](OC(C)(C)C)C(=O)O (atropisomer, axis not shown; (M)) [Example 99, (2S)(M)-2-(tert-butoxy)-2-(1-(2,3-difluorobenzyl)-6-methyl-4-(5-methylchroman-6-yl)-1H-pyrrolo[2,3-b]pyridin-5-yl)acetic acid] | 0.008
7 | Cc1ccc(-c2c([C@H](OC(C)(C)C)C(=O)O)c(C)nc3c2ccn3Cc2ccc(F)c(F)c2)c(C)c1 (atropisomer, axis not shown; (M)) [Example 101, (2S)(M)-2-(tert-butoxy)-2-(1-(3,4-difluorobenzyl)-4-(2,4-dimethylphenyl)-6-methyl-1H-pyrrolo[2,3-b]pyridin-5-yl)acetic acid] | 0.09
8 | Cc1nc2c(ccn2Cc2cccc(F)c2F)c(-c2ccc3c(c2C)NCCO3)c1[C@H](OC(C)(C)C)C(=O)O (atropisomer, axis not shown; (M)) [Example 104, (S)-2-(tert-Butoxy)-2-((M)-1-(2,3-difluorobenzyl)-6-methyl-4-(5-methyl-3,4-dihydro-2H-benzo[b][1,4]oxazin-6-yl)-1H-pyrrolo[2,3-b]pyridin-5-yl)acetic acid] | 0.013
9 | Cc1nc2c(c(-c3ccc4c(c3C)CCCO4)c1[C@H](OC(C)(C)C)C(=O)O)CCN2 (atropisomer, axis not shown; (M)) [Example 108, (2S)(M)-2-(tert-Butoxy)-2-(6-methyl-4-(5-methylchroman-6-yl)-2,3-dihydro-1H-pyrrolo[2,3-b]pyridin-5-yl)acetic acid] | 0.44
10 | Cc1nc2c(ccn2Cc2ccc(F)c(F)c2)c(-c2cc3c(cc2F)OCCC3)c1[C@H](OC(C)(C)C)C(=O)O (atropisomer, axis not shown; (M)) [Example 109, (2S)(M)-2-(tert-butoxy)-2-(1-(3,4-difluorobenzyl)-4-(7-fluorochroman-6-yl)-6-methyl-1H-pyrrolo[2,3-b]pyridin-5-yl)acetic acid] | 0.015
11 | COc1ccc(-c2c([C@H](OC(C)(C)C)C(=O)O)c(C)nc3c2ccn3Cc2ccc(F)c(F)c2)c(C)c1 (atropisomer, axis not shown; (M)) [Example 111, (2S)(M)-2-(tert-Butoxy)-2-(1-(3,4-difluorobenzyl)-4-(4-methoxy-2-methylphenyl)-6-methyl-1H-pyrrolo[2,3-b]pyridin-5-yl)acetic acid] | 0.037
12 | Cc1nc2c(ccn2Cc2ccc(F)c(F)c2)c(-c2ccc3c(c2Cl)NCCO3)c1[C@H](OC(C)(C)C)C(=O)O (atropisomer, axis not shown; (M)) [Example 113, (2S)(2M)-2-(tert-Butoxy)-2-(4-(5-chloro-3,4-dihydro-2H-benzo[b][1,4]oxazin-6-yl)-1-(3,4-difluorobenzyl)-6-methyl-M-pyrrolo[2,3-b]pyridin-5-yl)acetic acid, Trifluoroacetic acid salt] | 0.009
13 | Cc1nc2c(ccn2Cc2ccc(F)c(F)c2)c(-c2ccc3c(c2Cl)N(C)CCO3)c1[C@H](OC(C)(C)C)C(=O)O (atropisomer, axis not shown; (M)) [Example 116, (2S)(M)-2-(tert-Butoxy)-2-(4-(5-chloro-4-methyl-3,4-dihydro-2H-benzo[b][1,4]oxazin-6-yl)-1-(3,4-difluorobenzyl)-6-methyl-1H-pyrrolo[2,3-b]pyridin-5-yl)acetic acid, Trifluoroacetic acid salt] | 0.022
14 | Cc1nc2c(c(-c3ccc4c(c3C)NCCO4)c1[C@H](OC(C)(C)C)C(=O)O)CCN2Cc1cccc(F)c1F (atropisomer, axis not shown; (M)) [Example 118, (2S)(M)-2-(tert-butoxy)-2-(1-(2,3-difluorobenzyl)-6-methyl-4-(5-methyl-3,4-dihydro-2H-benzo[b][1,4]oxazin-6-yl)-2,3-dihydro-1H-pyrrolo[2,3-b]pyridin-5-yl)acetic acid, trifluoroacetic acid salt] | 0.14
15 | Cc1nc2c(c(-c3ccc4c(c3C)CCCO4)c1[C@H](OC(C)(C)C)C(=O)O)CCN2Cc1cccc(F)c1F (atropisomer, axis not shown; (M)) [Example 119] | 0.009
16 | Cc1cc(F)ccc1Cn1ccc2c(-c3ccc4c(c3C)NCCO4)c([C@H](OC(C)(C)C)C(=O)O)c(C)nc21 (atropisomer, axis not shown; (M)) [Example 122, (2S)(M)-2-(tert-butoxy)-2-(1-(4-fluoro-2-methylbenzyl)-6-methyl-4-(5-methyl-3,4-dihydro-2H-benzo[b][1,4]oxazin-6-yl)-1H-pyrrolo[2,3-b]pyridin-5-yl)acetic acid] | 0.014
17 | Cc1nc2c(ccn2Cc2ccc(F)c(F)c2)c(-c2ccc3c4c(ccnc24)CCO3)c1[C@H](OC(C)(C)C)C(=O)O (atropisomer, axis not shown; (M)) [Example 124, (S)-2-(tert-butoxy)-2-(1-(3,4-difluorobenzyl)-4-((M)-2,3-dihydropyrano[4,3,2-de]quinolin-7-yl)-6-methyl-1H-pyrrolo[2,3-b]pyridin-5-yl)acetic acid] | 0.035
